Measurements as given in article PMC7996536, “Optimization of Tilmicosin-Loaded Nanostructured Lipid Carriers Using Orthogonal Design for Overcoming Oral Administration Obstacle” (Pharmaceutics, 2021).
Converted amounts (≈) assume the structure as drawn. Where a name gives a salt, the structure may show the parent alone. Read-outs that look alike come from different tables or passages of the source. Blank lines part the entries; values can stand above or below the compound they belong to.

Key:
[1] = In vitro drug release by the dialysis bag method; format: physicochemical; settings: 48 h
Procedure: The in vitro drug release behavior of TMS-NLCs was carried out over 48 h by the dialysis bag method. Briefly, TMS-NLCs or the corresponding active pharmaceutical ingredient (API) of TMS (3 mL, 10 mg/mL) was added into a dialysis bag (MWCO of 100 kD, 16 mm, and 0.79 mL/cm), immersed in the simulated gastric or intestinal juice (500 mL) at 37 °C, and stirred under the magnetic stirrer with 100 rpm. At the set time, the samples (1 mL) were taken out and substituted by the same volume of fresh receptor fluids, and the TMS concentrations were detected by HPLC.
In this study, the concentrations of TMS in various media were detected with HPLC (Thermo U3000, Thermo Fisher Scientific, New York, NY, USA) with a C18 Reverse-phase column (5 µm, 4.6 mm inner diameter × 250 mm length, Agilent, Palo Alto, CA, USA). The mobile phase was acetonitrile–tetrahydrofuran–water–n-dibutylamine phosphate buffer salt solution (12:5.5:80:2.5; v/v). The column temperature was 30 °C, the injection volume was 20 µL, the UV detection wavelength was 291 nm, and the flow rate was 1 mL/min. The samples were filtered through a 0.22 µm filter membrane before HPLC analysis. The concentration of TMS was calculated using the standard curve equation (y = 31.314x − 2.0603, R^2 = 0.9999) for HPLC analysis of TMS, which had the good linear pattern over a range from 1 to 20 µg/mL as reported previously.

[2] = tested on: Streptococcus agalactiae A27; experiment: Microdilution broth MIC; format: cell-based; settings: S. agalactiae
Procedure: (§1) Microdilution broth assay was carried out to evaluate the antibacterial activity of API and TMS-NLCs according to the guidelines of the CLSI. The minimal inhibitory concentration (MIC) was determined against 2 strains of Gram-positive bacteria and 2 strains of Gram-negative bacteria. Staphylococcus aureus QWJAB25 and Streptococcus agalactiae A27 were isolated from milk in a scale farm located in Yangzhou, Jiangsu Province in 2019. The Escherichia coli used in this study was ATCC 25922. The Salmonella Typhimurium strain 1344 was donated by Associate Professor Jian Lin from College of Life Sciences, Nanjing Agricultural University.

[3] = tested on: Staphylococcus aureus QWJAB25; experiment: Microdilution broth MIC; format: cell-based; settings: S. aureus
Procedure: as §1

[4] = tested on: Salmonella Typhimurium strain 1344; experiment: Microdilution broth MIC; format: cell-based; settings: Salmonella enterica; S. Typhimurium
Procedure: as §1

[5] = tested on: Escherichia coli ATCC 25922; experiment: Microdilution broth MIC; format: cell-based; settings: ATCC25922, E. coli
Procedure: as §1

[6] = tested on: MDCK-chAbcg2/Abcb1 cells; experiment: MTT cell viability; format: cell-based, canine; settings: up to 50 µg/mL, 4 h, Figure 4B
Procedure: (§2) MTT assay was used to evaluate cell viability. Cells were seeded on 96-well plates 1 × 10^4 cells per well, cultured for 24 h until 90% confluent, and exposed to different concentrations of NLCs for 4 h. Then, the medium was replaced with 20 µL MTT (5 mg/mL) and 180 µL serum-free medium. After incubation for 4 h, the medium containing MTT was substituted with 150 µL DMSO. The absorbance of formazan was measured by a microplate reader (BIO-RAD, Hercules, CA, USA) at 490 nm. Untreated cells were taken as the control. The cytotoxicity was expressed as the cell viability compared with the untreated cells. Similarly, the cytotoxicity of endocytosis inhibitors were also evaluated, and the concentrations of each drug were chosen on the basis of the published literature, and EIPA (50 µM), chlorpromazine (30 µM), dynasore (80 µM), and MβCD (2 mM) were used in the present study.

[7] = tested on: MDCK cells; experiment: MTT cell viability; format: cell-based, canine; settings: up to 50 µg/mL, 4 h, Figure 4A
Procedure: as §2

[8] = tested on: chAbcg2/Abcb1 (P-gp); experiment: Bidirectional transport of API and TMS-NLCs across cell monolayers; format: in vitro ADME, canine; settings: dog, MDCK-chAbcg2/Abcb1; for Papp A→B at 4 h, 10 µg/mL / Papp B→A at 4 h, 10 µg/mL: 37 °C; for efflux ratio at 4 h, 10 µg/mL: read-out: ER
Procedure: (§3) MDCK and MDCK-chAbcg2/Abcb1 cells were seeded on 12-well Transwell® polycarbonate inserts at a density of 2 × 10^5 cells per well to constitute in vitro cell monolayer models. The apical side (AP) of the insert was filled with 0.5 mL medium, and the basolateral (BL) side was filled with 1.5 mL medium. The medium was replaced every two days. It took 5~7 days to form an intact cell monolayer.
(§4) The permeability efficiency was evaluated by comparing the bidirectional transport between API and TMS-NLCs. Briefly, apical-to-basolateral (AP→BL) and basolateral-to-apical (BL→AP) transport across monolayers was conducted by adding 10 µg/mL API or TMS-NLCs to donor compartments and incubating at 37 °C for 4 h. Then, the samples from receiver compartments were taken to analyze TMS concentrations by HPLC.
(§5) TMS is the substrate of glycoprotein (P-gp). To evaluate the inhibition effect of TMS-NLCs on P-gp mediated efflux, cell monolayers were incubated with the P-gp inhibitor verapamil (100 µM) for 1 h, and then, the medium was replaced with a mixture of verapamil and API or TMS-NLCs on one side and co-incubated for 4 h for bidirectional transport assay.
(§6) The efflux ratio (ER) and net efflux ratio (NER) values were obtained from the following equation [27, 28]:ER = Papp(BL→AP)/Papp(AP→BL) NER = ER(MDCK-chAbcg2/Abcb1)/ER(MDCK).

[9] = tested on: MDCK-chAbcg2/Abcb1 cell monolayers; experiment: as above; format: in vitro ADME, canine; settings: ER(MDCK-chAbcg2/Abcb1)/ER(MDCK)
Procedure: as §3, §4, §5, §6

[10] = as above; format: in vitro ADME, canine; settings: dog, MDCK; for Papp A→B at 4 h, 10 µg/mL / Papp B→A at 4 h, 10 µg/mL: 37 °C; for efflux ratio at 4 h, 10 µg/mL: read-out: ER
Procedure: as §3, §4, §5, §6

[11] = tested on: MDCK-chAbcg2/abcb1 monolayers; experiment: Transport mechanism of TMS-NLCs across monolayers (tracers, 4 °C, endocytosis inhibitors)
Procedure: To investigate the transport mechanism of TMS-NLCs, propranolol (100 µM) and lucifer yellow (225 µM) as the tracers were added to the AP side and co-incubated with TMS-NLCs for 4 h. The tracers that passed through monolayers to the BL side were quantified. The transport experiments of TMS-NLCs across MDCK-chAbcg2/abcb1 monolayers were also conducted at 4 °C. To get further insights into the transcellular transport of TMS-NLCs, the monolayers were pre-incubated with various endocytosis inhibitors on the AP side for 1 h and then co-incubated with TMS-NLCs for 4 h. The determination of TMS in the samples collected from the BL side was analyzed by HPLC.

[12] = Permeability of cell monolayers (tracers); format: in vitro ADME, canine; settings: dog, 37 °C, lucifer yellow 225 µM, propranolol 100 µM
Procedure: as §3
(§7) During the cultivation, the integrity of cell monolayers was evaluated by the transepithelial electrical resistance (TEER) values measured with Epithelial Volt-Ohm Meter (Millipore, Burlington, MA, USA). Monolayers with TEER values over 500 and 1700 Ω·cm^2 of MDCK and MDCK-chAbcg2/Abcb1 cells respectively were used for drug transport experiments, and the TEER values were also checked after the transport experiment to guarantee the integrity of cell monolayers. TEER = (Rtotal − Rblank) × A (Ω·cm^2)
(§8) After a week of cultivation, the AP side was filled with 0.5 mL propranolol (100 µM) or lucifer yellow (225 µM) and 1.5 mL of Hank’s solution on the BL side for 4 h at 37 °C. The solution on the BL side was collected for fluorescence analysis. The detection wavelengths were 428/540 nm ([…]) and 290/330 nm (propranolol), respectively. The apparent permeability coefficient (Papp) was calculated according to the following equation [24]:Papp = dQ/(dt * AC0) where dQ/dt is the transport rate in the receiver solution, A is the membrane surface area, and C0 is the initial concentration in the donor compartment.

[13] = tested on: MDCK-chAbcg2/Abcb1 cell monolayers; experiment: Permeability of cell monolayers (tracers); format: in vitro ADME, canine; settings: AP to BL, 4 h, 37 °C, lucifer yellow 225 µM, propranolol 100 µM
Procedure: as §3, §7, §8

[14] = tested on: MDCK cell monolayers; experiment: Permeability of cell monolayers (tracers); format: in vitro ADME, canine; settings: AP to BL, 4 h, 37 °C, lucifer yellow 225 µM, propranolol 100 µM
Procedure: as §3, §7, §8

in vitro release ([1]; SGF, pH 1.2, 37 °C): ~80%
in vitro release ([1]; SIF, pH 6.8, 37 °C): ~80%
MIC [2]: 16 µg/mL (≈ 18.4 µM)
MIC [3]: < 0.5 µg/mL
MIC [4]: 16 µg/mL (≈ 18.4 µM)
MIC [5]: 16 µg/mL (≈ 18.4 µM)
Papp A→B at 4 h, 10 µg/mL ([8]; with verapamil (100 µM)): 0.39 ± 0.04 ×10⁻⁶ cm/s
Papp B→A at 4 h, 10 µg/mL ([8]; with verapamil (100 µM)): 0.39 ± 0.07 ×10⁻⁶ cm/s
efflux ratio at 4 h, 10 µg/mL ([8]; with verapamil (100 µM)): 1
Papp A→B at 4 h, 10 µg/mL ([8]; without verapamil): 0.4 ± 0.02 ×10⁻⁶ cm/s
Papp B→A at 4 h, 10 µg/mL ([8]; without verapamil): 1.06 ± 0.03 ×10⁻⁶ cm/s
efflux ratio at 4 h, 10 µg/mL ([8]; without verapamil): 2.63
NER ([9]; with verapamil (100 µM)): 0.94
NER ([9]; without verapamil): 2.07
Papp A→B at 4 h, 10 µg/mL ([10]; with verapamil (100 µM)): 0.38 ± 0.02 ×10⁻⁶ cm/s
Papp B→A at 4 h, 10 µg/mL ([10]; with verapamil (100 µM)): 0.41 ± 0.04 ×10⁻⁶ cm/s
efflux ratio at 4 h, 10 µg/mL ([10]; with verapamil (100 µM)): 1.06
Papp A→B at 4 h, 10 µg/mL ([10]; without verapamil): 0.42 ± 0.04 ×10⁻⁶ cm/s
Papp B→A at 4 h, 10 µg/mL ([10]; without verapamil): 0.53 ± 0.02 ×10⁻⁶ cm/s
efflux ratio at 4 h, 10 µg/mL ([10]; without verapamil): 1.27
Papp at 4 °C [11]: under the detection limit
Compound: CC[C@H]1OC(=O)C[C@@H](O)[C@H](C)[C@@H](O[C@@H]2O[C@H](C)[C@@H](O)[C@H](N(C)C)[C@H]2O)[C@@H](CCN2C[C@H](C)C[C@H](C)C2)C[C@@H](C)C(=O)/C=C/C(C)=C/[C@@H]1CO[C@@H]1O[C@H](C)[C@@H](O)[C@@H](OC)[C@H]1OC [API, Tilmicosin]
cell viability compared to untreated cells [6]: not significantly decreased
cell viability compared to untreated cells [7]: not significantly decreased

Papp of tracer co-incubated with TMS-NLCs versus without [11]: no significant difference
Papp at 4 h, 100 µM ([12]; MDCK, AP to BL): 16.2 ± 0.65 ×10⁻⁶ cm/s
Papp at 4 h, 100 µM ([12]; MDCK-chAbcg2/Abcb1, AP to BL): 17.6 ± 0.64 ×10⁻⁶ cm/s
Compound: CC(C)NCC(O)COc1cccc2ccccc12 (centres unmarked) [Propranolol, propranolol hydrochloride]

Compound: lucifer yellow
Papp of tracer co-incubated with TMS-NLCs versus without ([11]; AP side, 4 h, Figure 5A): no significant difference
Papp [13]: 0.13 ± 0.01 ×10^−6 cm/s
Papp [14]: 0.22 ± 0.06 ×10^−6 cm/s
